Data as given in ChEMBL document CHEMBL5104094, “Chemistry, biosynthesis and biological activity of terpenoids and meroterpenoids in bacteria and fungi isolated from different marine habitats” (Eur J Med Chem, 2021).
≈ marks a conversion by molar mass, not a printed value.

Key:
Edwardsiella tarda = assay: Antimicrobial activity against Edwardsiella tarda assessed as microbial growth inhibition; assay type: functional
[1] = system: Ceratobasidium cornigerum; assay: Antimicrobial activity against Ceratobasidium cornigerum assessed as microbial growth inhibition; assay type: functional

- MIC (Edwardsiella tarda): 0.25 µg/mL (≈ 0.462 µM)
- MIC [1]: 0.5 µg/mL (≈ 0.925 µM)
Compound: C=C(C)[C@H]1[C@H](OC(C)=O)C[C@H](C)[C@@]12CC=C(C)[C@@H](OC(=O)CCCCCCC/C=C\C/C=C\CCCCC)C2
